This test addresses T1, hM5 (Homo sapiens, UniProt P08912).
T1 construct: expressed in transfected cells
T1 sequence (P08912 1-532): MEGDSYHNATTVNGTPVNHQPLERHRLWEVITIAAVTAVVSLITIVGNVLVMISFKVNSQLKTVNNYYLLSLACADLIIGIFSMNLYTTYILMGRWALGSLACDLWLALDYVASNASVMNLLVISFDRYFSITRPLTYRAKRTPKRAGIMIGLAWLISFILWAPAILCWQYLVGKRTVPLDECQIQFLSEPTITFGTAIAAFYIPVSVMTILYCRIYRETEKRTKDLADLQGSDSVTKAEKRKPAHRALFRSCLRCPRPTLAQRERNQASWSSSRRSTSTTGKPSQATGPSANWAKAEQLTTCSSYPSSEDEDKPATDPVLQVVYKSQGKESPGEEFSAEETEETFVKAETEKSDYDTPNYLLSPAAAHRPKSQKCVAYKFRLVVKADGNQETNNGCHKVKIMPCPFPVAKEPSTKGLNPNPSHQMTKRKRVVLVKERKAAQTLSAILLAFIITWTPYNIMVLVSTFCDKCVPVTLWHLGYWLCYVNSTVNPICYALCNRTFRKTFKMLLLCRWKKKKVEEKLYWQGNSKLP
Put plainly: Calcium mobilization concentration-response (IC50 vs EC80 acetylcholine), CHO hM5. To be noted: CELL LINE hM5, read-out: IC50. The class given is cell-based. A digest of the protocol:
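IC50 values derive from percent maximal acetylcholine response after an EC80 ACh addition, measured as kinetic calcium fluorescence (static ratio, max−min). Test compounds were added 140 s before agonist. Cells: stable hM5-CHO in HEPES-buffered HBSS with 2.5 mM probenecid, pH 7.4; ≥3 independent triplicate determinations.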

[1] abbreviates: calcium mobilization, EC80 acetylcholine addition.

Read-outs that look alike come from different tables or passages of the source.

Consider `Cc1c(C2CCN(S(=O)(=O)c3cnn4ccccc34)CC2)cn2ncnc2c1F` [Compound 545, 8-fluoro-7-methyl-6-(1-(pyrazolo[1,5-a]pyridin-3-ylsulfonyl)piperidin-4-yl)-[1,2,4]triazolo[1,5-a]pyridine], for which the IC50 (vs EC80 acetylcholine) was determined as 33 nM. On the same count and under the same terms, to `Cc1ncc(S(=O)(=O)N2CCC(c3cnc(N(C)C)cc3C)CC2)o1` [Compound 564, N,N,4-trimethyl-5-(1-((2-methyloxazol-5-yl)sulfonyl)piperidin-4-yl)pyridin-2-amine] belongs 94 nM. Still for that read-out and setting: to `[2H]C([2H])([2H])Oc1c(S(=O)(=O)N2CCC(c3cn4ncnc4cc3F)CC2)cnn1C` [Compound 616, 7-fluoro-6-(1-((5-(methoxy-d3)-1-methyl-1H-pyrazol-4-yl)sulfonyl)piperidin-4-yl)-[1,2,4]triazolo[1,5-a]pyridine] belongs 655 nM. Regarding `Cc1cc2nccn2nc1C1CCN(S(=O)(=O)c2cnn(C)c2C)CC1` [Compound 251, 6-(1-((1,5-dimethyl-1H-pyrazol-4-yl)sulfonyl)piperidin-4-yl)-7-methylimidazo[1,2-b]pyridazine], the IC50 under setting [1] was determined as 34 nM. Turning to `CCc1cc2ncnn2cc1C1CCN(S(=O)(=O)c2c(Cl)nn(C)c2C)CC1` [Compound 337, 6-(1-((3-chloro-1,5-dimethyl-1H-pyrazol-4-yl)sulfonyl)piperidin-4-yl)-7-ethyl-[1,2,4]triazolo[1,5-a]pyridine], under setting [1], the IC50 was found to be 37 nM. As to `Cc1cc2ncnn2cc1C1=CCN(S(=O)(=O)c2ccc3c(c2)C(C)CO3)CC1` (stereo not shown) [Compound 65, 7-Methyl-6-(1-((3-methyl-2,3-dihydrobenzofuran-5-yl)sulfonyl)-1,2,3,6-tetrahydropyridin-4-yl)[1,2,4]triazolo[1,5-a]pyridine], under setting [1], the IC50 came out at 384 nM.

As to `Cc1c(C2CCN(S(=O)(=O)c3nncn3C)CC2)cn2ncnc2c1F` [Compound 542, 8-fluoro-7-methyl-6-(1-((4-methyl-4H-1,2,4-triazol-3-yl)sulfonyl)piperidin-4-yl)-[1,2,4]triazolo[1,5-a]pyridine], the half-maximal inhibitory concentration (IC50) (vs EC80 acetylcholine) stood at 1710 nM. Regarding `Cc1nn(C)c(C(F)(F)F)c1S(=O)(=O)N1CCC(c2cn3ncnc3cc2C(F)(F)F)CC1` [Compound 281, 6-(1-((1,3-dimethyl-5-(trifluoromethyl)-1H-pyrazol-4-yl)sulfonyl)piperidin-4-yl)-7-(trifluoromethyl)-[1,2,4]triazolo[1,5-a]pyridine], under setting [1], the IC50 was found to be 1400 nM. On the same count and under the same terms, the same measure for `Cc1c(S(=O)(=O)N2CC=C(c3cc4ncnn4cc3Cl)CC2)cnn1C` [Compound 142, 6-chloro-7-(1-((1,5-dimethyl-1H-pyrazol-4-yl)sulfonyl)-1,2,3,6-tetrahydropyridin-4-yl)-[1,2,4]triazolo[1,5-a]pyridine]: 253 nM. Turning to `Cc1cc(S(=O)(=O)N2CCC(c3cn4ncnc4cc3C(F)F)CC2)sn1` [Compound 494, 5-((4-(7-(difluoromethyl)-[1,2,4]triazolo[1,5-a]pyridin-6-yl)piperidin-1-yl)sulfonyl)-3-methylisothiazole], under “vs EC80 acetylcholine”, the IC50 turned out to be 21 nM.

On to `Cc1sc(C(N)=O)nc1C1=CCN(S(=O)(=O)c2cnn(C)c2C)CC1` [Compound 202, 4-(1-((1,5-dimethyl-1H-pyrazol-4-yl)sulfonyl)-1,2,3,6-tetrahydropyridin-4-yl)-5-methylthiazole-2-carboxamide], for which the IC50 under setting [1] was greater than 10000 nM. For `Cc1cc2ncccc2cc1C1CCN(S(=O)(=O)c2cnc3n2CCCC3)CC1` [Compound 450, 7-methyl-6-(1-((5,6,7,8-tetrahydroimidazo[1,2-a]pyridin-3-yl)sulfonyl)piperidin-4-yl)quinoline], the IC50 (vs EC80 acetylcholine) is 39 nM. Consider `[2H]C([2H])([2H])OCc1c(S(=O)(=O)N2CCC(c3cn4ncnc4cc3C)CC2)cnn1C` [Compound 440, 6-(1-((5-((methoxy-d3)methyl)-1-methyl-1H-pyrazol-4-yl)sulfonyl)piperidin-4-yl)-7-methyl-[1,2,4]triazolo[1,5-a]pyridine], for which, for the setting “vs EC80 acetylcholine”, the half-inhibitory concentration (IC50) worked out at 4960 nM. As to `Cc1cc2ncnn2cc1C1(F)CCN(S(=O)(=O)c2cnn(C)c2Cl)CC1` [Compound 419, 6-(1-((5-chloro-1-methyl-1H-pyrazol-4-yl)sulfonyl)-4-fluoropiperidin-4-yl)-7-methyl-[1,2,4]triazolo[1,5-a]pyridine], where the note is “vs EC80 acetylcholine”, the IC50 was 36 nM. Still for that read-out and setting: the same measure for `Cc1cc2ncnn2cc1C1CCN(S(=O)(=O)c2cnn(C)c2-c2scnc2C)CC1` [Compound 598, 4-Methyl-5-(1-methyl-4-((4-(7-methyl-[1,2,4]triazolo[1,5-a]pyridin-6-yl)piperidin-1-yl)sulfonyl)-1H-pyrazo1-5-yl)thiazole]: 804 nM; for `Cc1nnc(S(=O)(=O)N2CCC(c3cn4ncnc4cc3C(F)F)CC2)s1` [Compound 556, 2-((4-(7-(difluoromethyl)-[1,2,4]triazolo[1,5-a]pyridin-6-yl)piperidin-1-yl)sulfonyl)-5-methyl-1,3,4-thiadiazole]: 342 nM; for `Cc1nnc(S(=O)(=O)N2CCC(c3cn4ncnc4cc3Cl)CC2)[nH]1` [Compound 599, 7-chloro-6-(1-((5-methyl-4H-1,2,4-triazol-3-yl)sulfonyl)piperidin-4-yl)-[1,2,4]triazolo[1,5-a]pyridine]: greater than 10000 nM.

For `Cc1cc2ncnn2cc1C1CCN(S(=O)(=O)c2cnc(Cl)c(C)c2)CC1` [Compound 57, 6-(1-((6-chloro-5-methylpyridin-3-yl)sulfonyl)piperidin-4-yl)-7-methyl-[1,2,4]triazolo[1,5-a]pyridine], the IC50 under setting [1] was found to be 1400 nM. On to `Cc1cc2ncnn2cc1C1(F)CCN(S(=O)(=O)c2cnn(C)c2C(F)F)CC1` [Compound 422, 6-(1-((5-(difluoromethyl)-1-methyl-1H-pyrazol-4-yl)sulfonyl)-4-fluoropiperidin-4-yl)-7-methyl-[1,2,4]triazolo[1,5-a]pyridine], for which the IC50 (vs EC80 acetylcholine) worked out at 86 nM.

For the molecule `Cc1cc(S(=O)(=O)N2CCC(c3cn4ncnc4cc3CF)CC2)sn1` [Compound 605, 5-((4-(7-(Fluoromethyl)-[1,2,4]triazolo[1,5-a]pyridin-6-yl)piperidin-1-yl)sulfonyl)-3-methylisothiazole], the IC50 (vs EC80 acetylcholine) worked out at 26 nM. Still for that read-out and setting: to `Cc1cc2nccn2nc1N1CCN(S(=O)(=O)c2cnn3c2OCCC3)CC1` [Compound 437, 3-((4-(7-methylimidazo[1,2-b]pyridazin-6-yl)piperazin-1-yl)sulfonyl)-6,7-dihydro-5H-pyrazolo[5,1-b][1,3]oxazine] belongs 59 nM; to `Cc1cc2ncnn2cc1C1CCN(S(=O)(=O)c2cnn(C)c2CN)CC1` [Compound 529, (1-methyl-4-((4-(7-methyl-[1,2,4]triazolo[1,5-a]pyridin-6-yl)piperidin-1-yl)sulfonyl)-1H-pyrazol-5-yl)methanamine], 371 nM. Same read-out and setting: to `Cc1cc(N(C)C)ncc1C1CCN(S(=O)(=O)c2cnn(C)c2C)CC1` [Compound 550, 5-(1-((1,5-dimethyl-1H-pyrazol-4-yl)sulfonyl)piperidin-4-yl)-N,N,4-trimethylpyridin-2-amine] belongs 9 nM. As for `Cc1ncc(S(=O)(=O)N2CCC(c3cn4ncnc4cc3Cl)CC2)n1C` [Compound 294, 7-chloro-6-(1-((1,2-dimethyl-1H-imidazol-5-yl)sulfonyl)piperidin-4-yl)-[1,2,4]triazolo[1,5-a]pyridine], under setting [1], the IC50 is 22 nM. For the molecule `Cc1cc2ncnn2cc1C1CCN(S(=O)(=O)c2cnc3c(c2)CCO3)CC1` [Compound 141, 5-((4-(7-methyl-[1,2,4]triazolo[1,5-a]pyridin-6-yl)piperidin-1-yl)sulfonyl)-2,3-dihydrofuro[2,3-b]pyridine], the IC50 under setting [1] worked out at 1400 nM. For `Cn1ncc(S(=O)(=O)N2CCC(F)(c3cn4ncnc4cc3F)CC2)c1Cl` [Compound 502, 6-(1-((5-chloro-1-methyl-1H-pyrazol-4-yl)sulfonyl)-4-fluoropiperidin-4-yl)-7-fluoro-[1,2,4]triazolo[1,5-a]pyridine], the 50% inhibitory concentration (IC50) (vs EC80 acetylcholine) amounted to 1630 nM. For `Cc1cc2ncnn2cc1C1(O)CCN(S(=O)(=O)c2ccc3c(c2)CCO3)CC1` [Compound 310, 1-((2,3-dihydrobenzofuran-5-yl)sulfonyl)-4-(7-methyl-[1,2,4]triazolo[1,5-a]pyridin-6-yl)piperidin-4-ol], the IC50 under setting [1] is greater than 10000 nM. For the molecule `CCc1cc2ncnn2cc1C1CCN(S(=O)(=O)c2cn(C)nn2)CC1` [Compound 562, 7-ethyl-6-(1-((1-methyl-1H-1,2,3-triazol-4-yl)sulfonyl)piperidin-4-yl)-[1,2,4]triazolo[1,5-a]pyridine], the IC50 (vs EC80 acetylcholine) was 972 nM. Turning to `Cc1c(S(=O)(=O)N2CCC(c3ccc4ncnn4c3C)CC2)cnn1C` [Compound 198, 6-(1-((1,5-dimethyl-1H-pyrazol-4-yl)sulfonyl)piperidin-4-yl)-5-methyl-[1,2,4]triazolo[1,5-a]pyridine], the IC50 under setting [1] was greater than 10000 nM. The same measure, in the same setting: the same measure for `Cc1cc2ncnn2cc1C1CCN(S(=O)(=O)c2c(C)n[nH]c2C)CC1` [Compound 157, 6-(1-((3,5-dimethyl-1H-pyrazol-4-yl)sulfonyl)piperidin-4-yl)-7-methyl-[1,2,4]triazolo[1,5-a]pyridine]: 2900 nM; for `Cc1ccncc1C1CCN(S(=O)(=O)c2cnn3c2CCC3)CC1` [Compound 388, 3-((4-(4-methylpyridin-3-yl)piperidin-1-yl)sulfonyl)-5,6-dihydro-4H-pyrrolo[1,2-b]pyrazole]: 822 nM.

Values taken from US20230183237A1, “COMPETITIVE AND NONCOMPETITIVE INHIBITORS OF THE MUSCARINIC ACETYLCHOLINE RECEPTOR M5” (Vanderbilt University, priority 2020, published 2023).
